In patent publication US20170112732A1, “ENCAPSULATION OF ORAL CARE ACTIVE AGENTS” (KONINKLIJKE PHILIPS N.V., priority 2014, published 2017):
Structures can show the parent of a compound that is named as a salt.

Test: Determination of ethyl formate solubility in paraffin oil (GC-FID)
Type: physicochemical
Description: 12 mL of ethyl formate (0.917 g/cm^3) were added to 18 mL of liquid paraffin (density, 0.830 g/cm^3) in a glass bottle. The bottle was then closed with butyl rubber stopper and aluminium crimp seal and seal with a hand crimper before vigorously mixing the system with a vortex for 2 min. The bottle containing the mixture was immersed in a temperature-controlled jacketed beaker for 24 h and to allow the formation of two distinct layers, an upper layer consisting of ethyl formate and Liquid paraffin and the lower layer with only ethyl formate. Samples were withdrawn from the upper layer with a needle, filtered and analysed using a gas chromatography with flame ionisation detector (GC-FID) under the conditions presented in table 2. The quantity of ethyl formate in the mixture was inferred from the calibration curve obtained with different concentration of ethyl formate diluted with anhydrous ethanol.

For `CCOC=O` [Ethyl formate, ethyl formate], the “Ethyl formate solubility in liquid paraffin” value (from here on “Ethyl formate solubility”) (5 ° C.) was 13.4 % v/v, the “Ethyl formate solubility” value (10 ° C.) was 16.3 % v/v and the “Ethyl formate solubility” value (20 ° C.) was 26.8 % v/v. For the same compound, the “Ethyl formate solubility” value (30 ° C.) was 38.9 % v/v.
